{"source": "patent US20190160156A1", "about": "“Use of Acid Stable Proteases in Animal Feed, Preferably to Increase Performance of Cocc-Vaccinated Broiler Chickens” (Novozymes A/S, priority 2011, published 2019)", "test_system": "male birds Cobb X Cobb chicks", "assay": "Floor pen feeding trial of cocci-vaccinated birds with ProAct and enzyme combinations (Example 3)", "assay_type": "in vivo, male broiler chickens (Cobb X Cobb)", "details": "Day 42, male Cobb X Cobb broilers", "method": "A floor pen trial was conducted using day old male birds Cobb X Cobb chicks. A total of 2,160 were allocated to the study. The experiment consisted of 48 pens of 45 male broiler chickens. Treatments were replicated in eight (8) blocks with six (6) treatments randomized in each. The birds were fed nutritionally-adequate basal diets based on corn/soybean meal and adjusted to the bird age by feeding a starter diet from day 1 to 16 and a grower diet from day 17 to 32 and a finisher diet from day 33 to 42. The 6 treatments were as follows:\nAs treatment RONOZYME® enzyme products, supplied by DSM Nutritional Products, Kaiseraugst, Switzerland have been used.\nRonozyme®AX=80% Ronozyme®WX+20% Ronozyme®A\nRonozyme® ProAct=pure protease product.\nAll birds received Cocci Vac® B on day 1 of age administered nasally in the hatchery except the positive control birds that were given a standard dose of the coccidiostat Salinomcyin of 60 g/ton of feed throughout the study\nAt the end of the trial at day 42 the average bird weight (Avg. Wt. Gain) and the average feed consumption (Feed Consump.) were determined and the Feed Conversion Ratio (FRC) was calculated by dividing the feed intake by the weight gain for each treatment"}
{"smiles": "CC[C@@H](C(=O)[C@@H](C)[C@@H](O)[C@H](C)[C@@H]1O[C@@H]([C@@H](CC)C(=O)O)CC[C@@H]1C)[C@H]1O[C@]2(C=C[C@@H](O)[C@]3(CC[C@@](C)([C@H]4CC[C@](O)(CC)[C@H](C)O4)O3)O2)[C@H](C)C[C@@H]1C", "note": "[Salinomcyin 60 g/t, Salinomycin]", "values": [{"measurement": "Avg. Wt. Gain", "setting": "average bird weight", "result": 2.490, "unit": "a"}, {"measurement": "Feed Consump.", "setting": "average feed consumption", "result": 191.58, "unit": "a"}, {"measurement": "FCR", "setting": "feed intake divided by weight gain", "result": 1.719, "unit": "days"}]}
